US10499642B2, “Isoxazoline-substituted benzamides and analogues as insecticides” (SYNGENTA PARTICIPATIONS AG, priority 2015, dated 2019)

What was measured:
Type in all cases: in vivo
Spodoptera littoralis = Spodoptera littoralis (Egyptian cotton leaf worm) cotton leaf disc test; conditions: foliar, 72 h, read-out: control (at least one of mortality, anti-feedant effect, and growth inhibition)
Method in brief: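 Five first-instar larvae per disc were placed on dried, sprayed cotton leaf discs held on agar. Test solutions were aqueous, made from 10′000 ppm DMSO stocks. At day 3, control was counted when mortality, feeding deterrence or growth inhibition exceeded the untreated discs.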

Myzus persicae = Myzus persicae (green peach aphid) sunflower leaf disc test; conditions: foliar, 144 h
Protocol: Myzus persicae (Green Peach Aphid):
Sunflower leaf discs were placed on agar in a 24-well microtiter plate and sprayed with test solutions at an application rate of 200 ppm. After drying, the leaf discs were infested with an aphid population of mixed ages. After an incubation period of 6 days after treatment, samples were checked for mortality. The following compounds gave at least 80% mortality of Myzus persicae: […]

Thrips tabaci = Thrips tabaci (onion thrips) sunflower leaf disc test; conditions: foliar, 144 h
Protocol: Thrips tabaci (Onion Thrips):
Sunflower leaf discs were placed on agar in 24-well microtiter plates and sprayed with aqueous test solutions prepared from 10′000 ppm DMSO stock solutions. After drying the leaf discs were infested with a thrips population of mixed ages. The samples were assessed for mortality 6 days after infestation.

Plutella xylostella = Plutella xylostella (diamond back moth) artificial diet test; conditions: 120 h, read-out: effect in at least one of the two categories (mortality or growth inhibition)
Method in brief: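 At a 200 ppm rate, test solutions were applied to artificial diet and allowed to dry before second-instar larvae were added. Five days later, larval mortality and growth inhibition were rated against untreated samples.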

Diabrotica Balteata = experiment: Diabrotica balteata (corn root worm) maize sprout test; conditions: 96 h, read-out: effect in at least one of the two categories (mortality or growth inhibition)
Method in brief: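 Scoring covered both mortality and growth inhibition relative to untreated controls, 4 days post-infestation. Test solutions at 200 ppm, diluted in water from 10′000 ppm DMSO stocks, were sprayed onto agar-held maize sprouts, which after drying received 6 to 10 L2 larvae each well.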

Tetranychus urticae = Tetranychus urticae (two-spotted spider mite) bean leaf disc test; conditions: foliar, 192 h
Protocol: Tetranychus urticae (Two-Spotted Spider Mite):
Bean leaf discs on agar in 24-well microtiter plates were sprayed with aqueous test solutions prepared from 10′000 ppm DMSO stock solutions. After drying the leaf discs were infested with a mite population of mixed ages. The samples were assessed for mortality on mixed population (mobile stages) 8 days after infestation.

CCOC1=NOC(NC(=O)c2ccc(C3=NO[C@@](c4cc(Cl)cc(Cl)c4)(C(F)(F)F)C3)cc2Cl)C1 (stereo partly drawn) [Compound A063]
≥ 80%: percent control (mortality, anti-feedant effect or growth inhibition) at 200 ppm (Spodoptera littoralis) | mortality at 200 ppm (Myzus persicae) | mortality at 200 ppm (Thrips tabaci) | percent effect (mortality or growth inhibition) at 200 ppm (Plutella xylostella) | percent effect (mortality or growth inhibition) at 200 ppm (Diabrotica Balteata) | mortality at 200 ppm (Tetranychus urticae)

COC1=NOC(NC(=O)c2ccc(C3=NO[C@@](c4cc(Cl)cc(C(F)(F)F)c4)(C(F)(F)F)C3)cc2C)C1 (stereo partly drawn) [Compound A042]
≥ 80%: percent control (mortality, anti-feedant effect or growth inhibition) at 200 ppm (Spodoptera littoralis) | mortality at 200 ppm (Myzus persicae) | mortality at 200 ppm (Thrips tabaci) | percent effect (mortality or growth inhibition) at 200 ppm (Plutella xylostella) | percent effect (mortality or growth inhibition) at 200 ppm (Diabrotica Balteata) | mortality at 200 ppm (Tetranychus urticae)

CCCCOC1=NOC(NC(=O)c2ccc(C3=NO[C@@](c4cc(Cl)c(F)c(Cl)c4)(C(F)(F)F)C3)cc2C)C1 (stereo partly drawn) [Compound A104]
≥ 80%: percent control (mortality, anti-feedant effect or growth inhibition) at 200 ppm (Spodoptera littoralis) | mortality at 200 ppm (Myzus persicae) | mortality at 200 ppm (Thrips tabaci) | percent effect (mortality or growth inhibition) at 200 ppm (Plutella xylostella) | percent effect (mortality or growth inhibition) at 200 ppm (Diabrotica Balteata) | mortality at 200 ppm (Tetranychus urticae)

CCOC1=NOC(NC(=O)c2ccc(C3=NO[C@@](c4cc(Cl)c(F)c(Cl)c4)(C(F)(F)F)C3)cc2Cl)C1 (stereo partly drawn) [Compound A064]
≥ 80%: percent control (mortality, anti-feedant effect or growth inhibition) at 200 ppm (Spodoptera littoralis) | mortality at 200 ppm (Myzus persicae) | mortality at 200 ppm (Thrips tabaci) | percent effect (mortality or growth inhibition) at 200 ppm (Plutella xylostella) | percent effect (mortality or growth inhibition) at 200 ppm (Diabrotica Balteata) | mortality at 200 ppm (Tetranychus urticae)

CCOC1=NOC(NC(=O)c2ccc(C3=NO[C@@](c4cc(Cl)cc(C(F)(F)F)c4)(C(F)(F)F)C3)cc2C)C1 (stereo partly drawn) [Compound A047]
≥ 80%: percent control (mortality, anti-feedant effect or growth inhibition) at 200 ppm (Spodoptera littoralis) | mortality at 200 ppm (Myzus persicae) | mortality at 200 ppm (Thrips tabaci) | percent effect (mortality or growth inhibition) at 200 ppm (Plutella xylostella) | percent effect (mortality or growth inhibition) at 200 ppm (Diabrotica Balteata) | mortality at 200 ppm (Tetranychus urticae)

CCOC1=NOC(NC(=O)c2ccc(C3=NO[C@@](c4cc(Cl)cc(Cl)c4)(C(F)(F)F)C3)cc2C)C1 (stereo partly drawn) [Compound A061, 4-[(5S)-5-(3,5-dichlorophenyl)-5-(trifluoromethyl)-4H-isoxazol-3-yl]-N-(3-ethoxy-4,5-dihydroisoxazol-5-yl)-2-methyl-benzamide]
≥ 80%: percent control (mortality, anti-feedant effect or growth inhibition) at 200 ppm (Spodoptera littoralis) | mortality at 200 ppm (Myzus persicae) | mortality at 200 ppm (Thrips tabaci) | percent effect (mortality or growth inhibition) at 200 ppm (Plutella xylostella) | percent effect (mortality or growth inhibition) at 200 ppm (Diabrotica Balteata) | mortality at 200 ppm (Tetranychus urticae)

Cc1cc(C2=NO[C@@](c3cc(Cl)c(F)c(Cl)c3)(C(F)(F)F)C2)ccc1C(=O)N(C=O)C1CC(C2CC2)=NO1 (stereo partly drawn) [Compound A031, N-(3-cyclopropyl-4,5-dihydroisoxazol-5-yl)-4-[(5S)-5-(3,5-dichloro-4-fluoro-phenyl)-5-(trifluoromethyl)-4H-isoxazol-3-yl]-N-formyl-2-methyl-benzamide]
≥ 80%: percent control (mortality, anti-feedant effect or growth inhibition) at 200 ppm (Spodoptera littoralis) | mortality at 200 ppm (Myzus persicae) | mortality at 200 ppm (Thrips tabaci) | percent effect (mortality or growth inhibition) at 200 ppm (Plutella xylostella) | percent effect (mortality or growth inhibition) at 200 ppm (Diabrotica Balteata) | mortality at 200 ppm (Tetranychus urticae)

COC1=NOC(NC(=O)c2ccc(C3=NO[C@@](c4cc(Cl)c(F)c(Cl)c4)(C(F)(F)F)C3)cc2C)C1 (stereo partly drawn) [Compound A030, 4-[(5S)-5-(3,5-dichloro-4-fluoro-phenyl)-5-(trifluoromethyl)-4H-isoxazol-3-yl]-N-(3-methoxy-4,5-dihydroisoxazol-5-yl)-2-methyl-benzamide]
≥ 80%: percent control (mortality, anti-feedant effect or growth inhibition) at 200 ppm (Spodoptera littoralis) | mortality at 200 ppm (Myzus persicae) | mortality at 200 ppm (Thrips tabaci) | percent effect (mortality or growth inhibition) at 200 ppm (Plutella xylostella) | percent effect (mortality or growth inhibition) at 200 ppm (Diabrotica Balteata) | mortality at 200 ppm (Tetranychus urticae)

CC(=O)OCC1=NOC(NC(=O)c2ccc(C3=NO[C@@](c4cc(Cl)c(F)c(Cl)c4)(C(F)(F)F)C3)cc2C)C1 (stereo partly drawn) [Compound A069]
≥ 80%: percent control (mortality, anti-feedant effect or growth inhibition) at 200 ppm (Spodoptera littoralis) | mortality at 200 ppm (Myzus persicae) | mortality at 200 ppm (Thrips tabaci) | percent effect (mortality or growth inhibition) at 200 ppm (Plutella xylostella) | percent effect (mortality or growth inhibition) at 200 ppm (Diabrotica Balteata) | mortality at 200 ppm (Tetranychus urticae)

Cc1cc(C2=NO[C@@](c3cc(Cl)c(F)c(Cl)c3)(C(F)(F)F)C2)ccc1C(=O)NC1CC(OC2CCC2)=NO1 (stereo partly drawn) [Compound A079]
≥ 80%: percent control (mortality, anti-feedant effect or growth inhibition) at 200 ppm (Spodoptera littoralis) | mortality at 200 ppm (Myzus persicae) | mortality at 200 ppm (Thrips tabaci) | percent effect (mortality or growth inhibition) at 200 ppm (Plutella xylostella) | percent effect (mortality or growth inhibition) at 200 ppm (Diabrotica Balteata) | mortality at 200 ppm (Tetranychus urticae)

CSC1=NOC(NC(=O)c2ccc(C3=NO[C@@](c4cc(Cl)cc(C(F)(F)F)c4)(C(F)(F)F)C3)cc2C)C1 (stereo partly drawn) [Compound A050]
≥ 80%: percent control (mortality, anti-feedant effect or growth inhibition) at 200 ppm (Spodoptera littoralis) | mortality at 200 ppm (Myzus persicae) | mortality at 200 ppm (Thrips tabaci) | percent effect (mortality or growth inhibition) at 200 ppm (Plutella xylostella) | percent effect (mortality or growth inhibition) at 200 ppm (Diabrotica Balteata) | mortality at 200 ppm (Tetranychus urticae)

CCOC1=NOC(N(C=O)C(=O)c2ccc(C3=NO[C@@](c4cc(Cl)cc(Cl)c4)(C(F)(F)F)C3)cc2C)C1 (stereo partly drawn) [Compound A133, 4-[(5S)-5-(3,5-dichlorophenyl)-5-(trifluoromethyl)-4H-isoxazol-3-yl]-N-(3-ethoxy-4,5-dihydroisoxazol-5-yl)-N-formyl-2-methyl-benzamide]
≥ 80%: percent control (mortality, anti-feedant effect or growth inhibition) at 200 ppm (Spodoptera littoralis) | mortality at 200 ppm (Myzus persicae) | mortality at 200 ppm (Thrips tabaci) | percent effect (mortality or growth inhibition) at 200 ppm (Plutella xylostella) | percent effect (mortality or growth inhibition) at 200 ppm (Diabrotica Balteata) | mortality at 200 ppm (Tetranychus urticae)

CC1=NOC(NC(=O)c2ccc(C3=NO[C@@](c4cc(Cl)c(Cl)c(Cl)c4)(C(F)(F)F)C3)cc2C)C1 (stereo partly drawn) [Compound A027, 2-methyl-N-(3-methyl-4,5-dihydroisoxazol-5-yl)-4-[(5S)-5-(3,4,5-trichlorophenyl)-5-(trifluoromethyl)-4H-isoxazol-3-yl]benzamide]
≥ 80%: percent control (mortality, anti-feedant effect or growth inhibition) at 200 ppm (Spodoptera littoralis) | mortality at 200 ppm (Myzus persicae) | mortality at 200 ppm (Thrips tabaci) | percent effect (mortality or growth inhibition) at 200 ppm (Plutella xylostella) | percent effect (mortality or growth inhibition) at 200 ppm (Diabrotica Balteata) | mortality at 200 ppm (Tetranychus urticae)

Cc1cc(C2=NO[C@@](c3cc(Cl)cc(Cl)c3)(C(F)(F)F)C2)ccc1C(=O)N[C@@H]1CC(C(F)(F)F)=NO1 (single isomer, unassigned) [Compound A154]
≥ 80%: percent control (mortality, anti-feedant effect or growth inhibition) at 200 ppm (Spodoptera littoralis) | mortality at 200 ppm (Myzus persicae) | mortality at 200 ppm (Thrips tabaci) | percent effect (mortality or growth inhibition) at 200 ppm (Plutella xylostella) | percent effect (mortality or growth inhibition) at 200 ppm (Diabrotica Balteata) | mortality at 200 ppm (Tetranychus urticae)

CC1=NOC(NC(=O)c2ccc(C3=NO[C@@](c4cc(Cl)c(Cl)c(Cl)c4)(C(F)(F)F)C3)cc2Cl)C1 (stereo partly drawn) [Compound A025, 2-chloro-N-(3-methyl-4,5-dihydroisoxazol-5-yl)-4-[(5S)-5-(3,4,5-trichlorophenyl)-5-(trifluoromethyl)-4H-isoxazol-3-yl]benzamide]
≥ 80%: percent control (mortality, anti-feedant effect or growth inhibition) at 200 ppm (Spodoptera littoralis) | mortality at 200 ppm (Myzus persicae) | mortality at 200 ppm (Thrips tabaci) | percent effect (mortality or growth inhibition) at 200 ppm (Plutella xylostella) | percent effect (mortality or growth inhibition) at 200 ppm (Diabrotica Balteata) | mortality at 200 ppm (Tetranychus urticae)
